Experimental data reported in patent US20110319790A1, “PHARMACEUTICAL COMPOSITION AND SYSTEM FOR PERMEABILIZING FETAL MEMBRANES” (B.G. NEGEV TECHNOLOGIES AND APPLICATIONS LTD., priority 2008, published 2011).

System: postpartum human fetal membranes
Assay: Permeability of postpartum human fetal membranes to FITC-Dextran in a vertical glass diffusion cell after incubation with a substance
Conditions: FIG. 8, 30 minutes incubation, FITC-Dextran 77 KDa, maternal side facing donor compartment
Protocol: The permeability of postpartum human fetal membranes (obtained from Hillel Yaffe Medical Center, Israel) upon exposure to different substances was determined. The experimental set-up used is shown schematically in FIG. 7. […] The membrane 171 was first incubated with a substance 176 added to the donor compartment 173. After 30 minutes of incubation, the substance was removed from the donor compartment 173. The donor compartment was then washed with PBS, and the donor and receiver compartments were filled with 0.01M phosphate buffered Saline (PBS) 175. 5 mL of a 0.5 mg/mL Dextran solution in PBS (average molecular weight of the Dextran 77 KDa) conjugated to the fluorescent label FITC (fluorescein isothiocyanate-Dextran)) 179 was added to the donor compartment 173. The diffusion cell 172 was protected from light in order to prevent fluorescent bleaching of the FITC. 1 mL samples were withdrawn from the receiver compartment 174 at various times with constant stirring of the receiver compartment, and the concentration of the FITC in the samples was determined spectofluorimetrically.
From the rate of increase in the concentration of the fluorescence in the receiver compartment 174, the extent of permeability enhancement of the membrane, in comparison to a control experiment was calculated.

## CCCCCCCCCCCCCCCC[N+](C)(C)C.[Br-] [Cetyl trimethylammonium bromide (CTAB), Cetyl trimethylammonium bromide]
Substance at 4%
  enhancement in permeability of the membrane compared to control: Enhanced permeability

## CCCCCCCCCCCCOS(=O)(=O)[O-].[Na+] [SLS, sodium lauryl sulfate]
Substance at 1%
  enhancement in permeability of the membrane compared to control: Enhanced permeability

## CC(C)CCCCCCCCCCCCCCC(=O)O [iso-stearic acid]
Substance at 10%
  enhancement in permeability of the membrane compared to control: Enhanced permeability

## CCCCN1CCCCC1C(=O)Nc1c(C)cccc1C (stereo not shown) [bupivacaine]
Substance at 0.5%
  enhancement in permeability of the membrane compared to control: Enhanced permeability

## OCCO [ethylene glycol]
Substance at 10%
  enhancement in permeability of the membrane compared to control: Enhanced permeability

## CN1CCCC1=O [N-methy-2-pyrrolidone (NMP), N-methy-2-pyrrolidone]
Concentration not given
  enhancement in permeability of the membrane compared to control: Enhanced permeability

## CCCCCCCC/C=C\CCCCCCCC(=O)O [Oleic acid]
Substance at 1.5%
  enhancement in permeability of the membrane compared to control: Enhanced permeability
